{"source": "patent US20210380595A1", "about": "(ARAXES PHARMA LLC, priority 2018, published 2021)", "data": [{"target": "T1, KRAS G12C 1-169, his-tagged protein, GDP-loaded (Homo sapiens, UniProt P01116, G12C)", "T1 construct": "KRAS G12C 1-169, his-tagged protein, GDP-loaded", "assay": "Biochemical assay: covalent modification of KRAS G12C measured by mass spectrometry (RapidFire/TOF or Q-Exactive); note: time not given here", "assay_type": "binding", "settings": "tested at 32 μM", "method_in_brief": "(§1)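 GDP-loaded KRAS G12C 1-169 (his-tagged, 2 μM or 0.5 μM in 20 mM Hepes, 150 mM NaCl, 1 mM MgCl2) reacted with compound at 32 μM or 8 μM final, then quenched with formic acid. Intact-protein LC-MS (RapidFire/TOF or Q-Exactive) with charge-envelope deconvolution; % modification from modified vs unmodified peak intensities.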", "values": [{"smiles": "C=CC(=O)N1CCC2(CCCN(c3cc(OCc4ccccn4)cc(-c4c(C)ccc5[nH]ncc45)c3C#N)C2)C1", "note": "(centres unmarked) [Compound I-62, 2-(2-acryloyl-2,7-diazaspiro[4.5]decan-7-yl)-6-(5-methyl-1H-indazol-4-yl)-4-(pyridin-2-ylmethoxy) benzonitrile]", "Bind %": "+ (+ indicates binding activity greater than 0% and up to 50%)"}, {"smiles": "CC#CC(=O)N1CCC2(CCCN(c3cc(OCc4ccccn4)cc(-c4c(C)ccc5[nH]ncc45)c3C#N)C2)C1", "note": "(centres unmarked) [Compound I-63, 2-(2-(but-2-ynoyl)-2,7-diazaspiro[4.5]decan-7-yl)-6-(5-methyl-1H-indazol-4-yl)-4-(pyridin-2-ylmethoxy) benzonitrile]", "Bind %": "+ (+ indicates binding activity greater than 0% and up to 50%)"}, {"smiles": "CC#CC(=O)N1CCC2(CC1)CN(c1cc(OCc3ccccn3)cc(-c3c(C)ccc4[nH]ncc34)c1C#N)C2", "note": "[Compound I-64, 2-(7-(but-2-ynoyl)-2,7-diazaspiro[3.5]nonan-2-yl)-6-(5-methyl-1H-indazol-4-yl)-4-(pyridin-2-ylmethoxy) benzonitrile]", "Bind %": "+ (+ indicates binding activity greater than 0% and up to 50%)"}, {"smiles": "C=CC(=O)N1CCC2(CC1)CN(c1cc(OCc3ccccn3)cc(-c3c(C)ccc4[nH]ncc34)c1C#N)C2", "note": "[Compound I-65, 2-(7-acryloyl-2,7-diazaspiro[3.5]nonan-2-yl)-6-(5-methyl-1H-indazol-4-yl)-4-(pyridin-2-ylmethoxy) benzonitrile]", "Bind %": "+ (+ indicates binding activity greater than 0% and up to 50%)"}, {"smiles": "C=CC(=O)N1CCCC2(C1)CN(c1cc(OCc3ccccn3)cc(-c3c(C)ccc4[nH]ncc34)c1C#N)C2", "note": "[Compound I-66, 2-(6-acryloyl-2,6-diazaspiro[3.5]nonan-2-yl)-6-(5-methyl-1H-indazol-4-yl)-4-(pyridin-2-ylmethoxy) benzonitrile]", "Bind %": "+ (+ indicates binding activity greater than 0% and up to 50%)"}, {"smiles": "CC#CC(=O)N1CCCC2(C1)CN(c1cc(OCc3ccccn3)cc(-c3c(C)ccc4[nH]ncc34)c1C#N)C2", "note": "[Compound I-67, 2-(6-(but-2-ynoyl)-2,6-diazaspiro[3.5]nonan-2-yl)-6-(5-methyl-1H-indazol-4-yl)-4-(pyridin-2-ylmethoxy) benzonitrile]", "Bind %": "+ (+ indicates binding activity greater than 0% and up to 50%)"}, {"smiles": "Cc1ccc2cnn(C)c2c1-c1cc(N2CCCC(O)C2)cc(N2CCC3(CN(C(=O)/C=C/CN(C)C)C3)C2)c1C#N", "note": "(centres unmarked) [Compound I-69, (E)-2-(1,6-dimethyl-1H-indazol-7-yl)-6-(2-(4-(dimethylamino)but-2-enoyl)-2,6-diazaspiro[3.4]octan-6-yl)-4-(3-hydroxypiperidin-1-yl)benzonitrile]", "Bind %": "+ (+ indicates binding activity greater than 0% and up to 50%)"}, {"smiles": "Cc1ccc2[nH]ncc2c1-c1cc(N2CCCC(O)C2)cc(N2CCC3(CN(C(=O)/C=C/CN(C)C)C3)C2)c1C#N", "note": "(centres unmarked) [Compound I-70, (E)-2-(2-(4-(dimethylamino)but-2-enoyl)-2,6-diazaspiro[3.4]octan-6-yl)-4-(3-hydroxypiperidin-1-yl)-6-(5-methyl-1H-indazol-4-yl)benzonitrile]", "Bind %": "++ (++ indicates binding activity from 50 to 75%)"}, {"smiles": "CC#CC(=O)N1CC2(C1)CN(c1cc(OCc3ccccn3)cc(-c3c(C)ccc4[nH]ncc34)c1C#N)C2", "note": "[Compound I-73, 2-(6-(but-2-ynoyl)-2,6-diazaspiro[3.3]heptan-2-yl)-6-(5-methyl-1H-indazol-4-yl)-4-(pyridin-2-ylmethoxy) benzonitrile]", "Bind %": "+ (+ indicates binding activity greater than 0% and up to 50%)"}, {"smiles": "CC#CC(=O)N1CCCC2(CCN(c3cc(OCc4ccccn4)cc(-c4c(C)ccc5[nH]ncc45)c3C#N)C2)C1", "note": "(centres unmarked) [Compound I-74, 2-(7-(but-2-ynoyl)-2,7-diazaspiro[4.5]decan-2-yl)-6-(5-methyl-1H-indazol-4-yl)-4-(pyridin-2-ylmethoxy) benzonitrile]", "Bind %": "+ (+ indicates binding activity greater than 0% and up to 50%)"}, {"smiles": "C=CC(=O)N1CCCC2(CCN(c3cc(OCc4ccccn4)cc(-c4c(C)ccc5[nH]ncc45)c3C#N)C2)C1", "note": "(centres unmarked) [Compound I-75, 2-(7-acryloyl-2,7-diazaspiro[4.5]decan-2-yl)-6-(5-methyl-1H-indazol-4-yl)-4-(pyridin-2-ylmethoxy) benzonitrile]", "Bind %": "+ (+ indicates binding activity greater than 0% and up to 50%)"}, {"smiles": "C=CC(=O)N1CC2(CCCN(c3cc(OCc4ccccn4)cc(-c4c(C)ccc5[nH]ncc45)c3C#N)C2)C1", "note": "[Compound I-78, 2-(2-acryloyl-2,6-diazaspiro[3.5]nonan-6-yl)-6-(5-methyl-1H-indazol-4-yl)-4-(pyridin-2-ylmethoxy) benzonitrile]", "Bind %": "+ (+ indicates binding activity greater than 0% and up to 50%)"}, {"smiles": "CC#CC(=O)N1CC2(CCCN(c3cc(OCc4ccccn4)cc(-c4c(C)ccc5[nH]ncc45)c3C#N)C2)C1", "note": "[Compound I-79, 2-(2-(but-2-ynoyl)-2,6-diazaspiro[3.5]nonan-6-yl)-6-(5-methyl-1H-indazol-4-yl)-4-(pyridin-2-ylmethoxy) benzonitrile]", "Bind %": "+ (+ indicates binding activity greater than 0% and up to 50%)"}, {"smiles": "C=CC(=O)N1CC2(CCN(c3cc(N4CCC(O)CC4)cc(-c4c(C)ccc5[nH]ncc45)c3C#N)CC2)C1", "note": "[Compound I-81, 2-(2-acryloyl-2,7-diazaspiro[3.5]nonan-7-yl)-4-(4-hydroxypiperidin-1-yl)-6-(5-methyl-1H-indazol-4-yl)benzonitrile]", "Bind %": "+ (+ indicates binding activity greater than 0% and up to 50%)"}, {"smiles": "C=CC(=O)N1CC2(CCN(c3cc(N4CCC(N5CCN(C)[C@@H](C)C5)CC4)cc(-c4c(C)ccc5[nH]ncc45)c3C#N)CC2)C1", "note": "[Compound I-82, 2-(2-acryloyl-2,7-diazaspiro[3.5]nonan-7-yl)-4-(4-((S)-3,4-dimethyl-piperazin-1-yl)piperidin-1-yl)-6-(5-methyl-1H-indazol-4-yl)benzonitrile]", "Bind %": "+ (+ indicates binding activity greater than 0% and up to 50%)"}, {"smiles": "C=CC(=O)N1CC2(CCN(c3ccc(OCCCN(C)C)c(-c4c(C)ccc5[nH]ncc45)c3C#N)CC2)C1", "note": "[Compound I-83, 6-(2-acryloyl-2,7-diazaspiro[3.5]nonan-7-yl)-3-(3-(dimethylamino)propoxy)-2-(5-methyl-1H-indazol-4-yl)benzonitrile]", "Bind %": "+ (+ indicates binding activity greater than 0% and up to 50%)"}, {"smiles": "C=CC(=O)N1CC2(CCN(c3cc(N4CCOCC4)c(OC)c(-c4c(C)ccc5[nH]ncc45)c3C#N)CC2)C1", "note": "[Compound I-84, 6-(2-acryloyl-2,7-diazaspiro[3.5]nonan-7-yl)-3-methoxy-2-(5-methyl-1H-indazol-4-yl)-4-morpholino-benzonitrile]", "Bind %": "+ (+ indicates binding activity greater than 0% and up to 50%)"}, {"smiles": "C=CC(=O)N1CC2(CCN(c3ccc(Cl)c(-c4c(C)ccc5[nH]ncc45)c3C#N)CC2)C1", "note": "[Compound I-85, 6-(2-acryloyl-2,7-diazaspiro[3.5]nonan-7-yl)-3-chloro-2-(5-methyl-1H-indazol-4-yl)benzonitrile]", "Bind %": "+ (+ indicates binding activity greater than 0% and up to 50%)"}, {"smiles": "C=CC(=O)N1CCC2(CCN(c3ccc(F)c(-c4c(C)ccc5[nH]ncc45)c3C#N)CC2)C1", "note": "[Compound I-94, 6-(2-acryloyl-2,8-diazaspiro[4.5]decan-8-yl)-3-fluoro-2-(5-methyl-1H-indazol-4-yl)benzonitrile]", "Bind %": "+ (+ indicates binding activity greater than 0% and up to 50%)"}, {"smiles": "C=CC(=O)N1CCC2(C1)CN(c1ccc(F)c(-c3c(C)ccc4[nH]ncc34)c1C#N)C2", "note": "[Compound I-95, 6-(6-acryloyl-2,6-diazaspiro[3.4]octan-2-yl)-3-fluoro-2-(5-methyl-1H-indazol-4-yl)benzonitrile]", "Bind %": "+ (+ indicates binding activity greater than 0% and up to 50%)"}, {"smiles": "C=CC(=O)N1CCC2(CC1)CN(c1ccc(F)c(-c3c(C)ccc4[nH]ncc34)c1C#N)C2", "note": "[Compound I-96, 6-(7-acryloyl-2,7-diazaspiro[3.5]nonan-2-yl)-3-fluoro-2-(5-methyl-1H-indazol-4-yl)benzonitrile]", "Bind %": "+ (+ indicates binding activity greater than 0% and up to 50%)"}, {"smiles": "C=CC(=O)N1CC2(CCN(c3cc(N4CCOCC4)c(F)c(-c4c(C)ccc5cnn(C)c45)c3C#N)CC2)C1", "note": "[Compound I-97, 6-(2-acryloyl-2,7-diazaspiro[3.5]nonan-7-yl)-2-(1,6-dimethyl-1H-indazol-7-yl)-3-fluoro-4-morpholino-benzonitrile]", "Bind %": "+ (+ indicates binding activity greater than 0% and up to 50%)"}]}, {"target": "T1, KRAS G12C 1-169, his-tagged protein, GDP-loaded", "assay": "Biochemical assay: covalent modification of KRAS G12C measured by mass spectrometry (RapidFire/TOF or Q-Exactive)", "assay_type": "binding", "settings": "tested at a concentration of 8 μM", "method_in_brief": "as §1", "values": [{"smiles": "C=CC(=O)N1CC2(CCN(c3cc(OCc4ccccn4)cc(-c4c(C)ccc5[nH]nc(C)c45)c3C#N)C2)C1", "note": "[Compound I-71, 2-(2-acryloyl-2,6-diazaspiro[3.4]octan-6-yl)-6-(3,5-dimethyl-1H-indazol-4-yl)-4-(pyridin-2-ylmethoxy) benzonitrile]", "Bind %": "+++ (+++ indicates binding activity greater than 75%)"}, {"smiles": "C=CC(=O)N1CC2(C1)CN(c1cc(OCc3ccccn3)cc(-c3c(C)ccc4[nH]ncc34)c1C#N)C2", "note": "[Compound I-72, 2-(6-acryloyl-2,6-diazaspiro[3.3]heptan-2-yl)-6-(5-methyl-1H-indazol-4-yl)-4-(pyridin-2-ylmethoxy) benzonitrile]", "Bind %": "+++ (+++ indicates binding activity greater than 75%)"}, {"smiles": "C=CC(=O)N1CC2(CCN(c3cc(N4CCCC(O)C4)cc(-c4c(C)ccc5[nH]nc(C)c45)c3C#N)C2)C1", "note": "(centres unmarked) [Compound I-76, 2-(2-acryloyl-2,6-diazaspiro[3.4]octan-6-yl)-6-(3,5-dimethyl-1H-indazol-4-yl)-4-(3-hydroxypiperidin-1-yl)benzonitrile]", "Bind %": "++ (++ indicates binding activity from 50 to 75%)"}, {"smiles": "C=CC(=O)N1CC2(CCN(c3cc(N4CCOCC4)c(F)c(-c4c(C)ccc5[nH]ncc45)c3C#N)CC2)C1", "note": "[Compound I-80, 6-(2-acryloyl-2,7-diazaspiro[3.5]nonan-7-yl)-3-fluoro-2-(5-methyl-1H-indazol-4-yl)-4-morpholino-benzonitrile]", "Bind %": "+ (+ indicates binding activity greater than 0% and up to 50%)"}]}]}
